pEC50: −log10 of the molar value.
Tests used:
human mGluR5 = human mGluR5 (Homo sapiens, UniProt P41594); test: Cell-based functional Ca2+ mobilization assay (FDSS), potentiation of glutamate EC20 response; conditions: H10H cell-line (HEK, recombinant human mGluR5); for Emax: glutamate EC20, maximum average response at a single concentration, percent of maximal glutamate response; for pEC50: positive allosteric modulation in presence of glutamate EC20, concentration in mol/L
Excerpt: Human mGluR5a cDNA in pCMV6-XL6 mammalian expression plasmid was purchased from OriGene Technologies, Inc. (catalogue number SC326357) and subcloned into pcDNA3.1(−). Human embryonic kidney (HEK) 293A cells were then transfected with human mGluR5a pcDNA3.1(−) using LipofectAmine2000 (Invitrogen) and monoclones were selected and tested for functional response using a Ca^2+ mobilization assay. Monoclones were named for the species (“H” for human) plus the location on the plate (e.g. “10H”).
HEK cells transfected with the human mGluR5a receptor (H10H or H12H cell line) were plated at 15,000 cells/well in clear-bottomed poly-D-lysine-coated assay plates (BD Falcon) in glutamate-glutamine-free growth medium and incubated overnight at 37° C. and 5% CO2. Cell-lines used were either the H10H or H12H cell-lines expressing the human mGluR5 receptor. The following day, the growth medium was removed and the cells were washed with assay buffer containing 1× Hank's balanced salt solution (Invitrogen, Carlsbad, Calif.), 20 mM HEPES, 2.5 mM probenecid, pH 7.4 and left with 20 μL of this reagent. Following this step, the cells were loaded with calcium indicator dye, fluo-4 AM, to a final concentration of 2 μM and incubated for 40-45 min at 37° C. The dye solution was removed and replaced with assay buffer. Cell plates were held for 10-15 min at room temperature and were then loaded into the Functional Drug Screening System 6000 (FDSS 6000, Hamamatsu, Japan).
After establishment of a fluorescence baseline for about 3 seconds, the compounds of the present invention were added to the cells, and the response in cells was measured. 2.3 minutes later an EC20 concentration of the mGluR5 receptor agonist glutamate was added to the cells, and the response of the cells was measured for about 1.7 minutes. All test compounds were dissolved and diluted to a concentration of 10 mM in 100% DMSO and then serially diluted into assay buffer for a 2× stock solution in 0.6% DMSO; stock compounds were then added to the assay for a final DMSO concentration of 0.3% after the first addition to the assay well. Calcium fluorescence measures were recorded as fold over basal fluorescence; raw data was then normalized to the maximal response to glutamate. Potentiation of the agonist response of the mGluR5 receptor in the present invention was observed as an increase in response to submaximal concentrations of glutamate in the presence of compound compared to the response to glutamate in the absence of compound.
The concentration-response curves of compounds of the present invention, obtained in the presence of EC20 of mGluR5 receptor agonist glutamate to determine positive allosteric modulation, were generated using Microsoft Excel with IDBS XLFit add-ins. The raw data file containing all time points was used as the data source in the analysis template. This was saved by the FDSS as a tab-delimited text file. Data were normalized using a static ratio function (F/F0) for each measurement of the total 350 values per well divided by each well's initial value. Data was then reduced as to peak amplitudes (Max-Initial Min) using a time range that starts approximately 1 second after the glutamate EC20 addition and continues for approximately 40 seconds. This is sufficient time to capture the peak amplitude of the cellular Calcium response. Individual amplitudes were expressed as % EMax by multiplying each amplitude by 100 and then dividing the product by the mean of the amplitudes derived from the glutamate ECMax-treated wells. pEC50 values for test compounds were generated by fitting the normalized values versus the log of the test compound concentration (in mol/L) using a 4 parameter logistic equation where none of the parameters were fixed. Each of the three values collected at each concentration of test compound were weighted evenly. Individual values falling outside the 95% prediction limits of the curve fit were automatically excluded from the fit. […]

human mGluR5, sequence (P41594 21-1180 isoform P41594-2 limits assumed): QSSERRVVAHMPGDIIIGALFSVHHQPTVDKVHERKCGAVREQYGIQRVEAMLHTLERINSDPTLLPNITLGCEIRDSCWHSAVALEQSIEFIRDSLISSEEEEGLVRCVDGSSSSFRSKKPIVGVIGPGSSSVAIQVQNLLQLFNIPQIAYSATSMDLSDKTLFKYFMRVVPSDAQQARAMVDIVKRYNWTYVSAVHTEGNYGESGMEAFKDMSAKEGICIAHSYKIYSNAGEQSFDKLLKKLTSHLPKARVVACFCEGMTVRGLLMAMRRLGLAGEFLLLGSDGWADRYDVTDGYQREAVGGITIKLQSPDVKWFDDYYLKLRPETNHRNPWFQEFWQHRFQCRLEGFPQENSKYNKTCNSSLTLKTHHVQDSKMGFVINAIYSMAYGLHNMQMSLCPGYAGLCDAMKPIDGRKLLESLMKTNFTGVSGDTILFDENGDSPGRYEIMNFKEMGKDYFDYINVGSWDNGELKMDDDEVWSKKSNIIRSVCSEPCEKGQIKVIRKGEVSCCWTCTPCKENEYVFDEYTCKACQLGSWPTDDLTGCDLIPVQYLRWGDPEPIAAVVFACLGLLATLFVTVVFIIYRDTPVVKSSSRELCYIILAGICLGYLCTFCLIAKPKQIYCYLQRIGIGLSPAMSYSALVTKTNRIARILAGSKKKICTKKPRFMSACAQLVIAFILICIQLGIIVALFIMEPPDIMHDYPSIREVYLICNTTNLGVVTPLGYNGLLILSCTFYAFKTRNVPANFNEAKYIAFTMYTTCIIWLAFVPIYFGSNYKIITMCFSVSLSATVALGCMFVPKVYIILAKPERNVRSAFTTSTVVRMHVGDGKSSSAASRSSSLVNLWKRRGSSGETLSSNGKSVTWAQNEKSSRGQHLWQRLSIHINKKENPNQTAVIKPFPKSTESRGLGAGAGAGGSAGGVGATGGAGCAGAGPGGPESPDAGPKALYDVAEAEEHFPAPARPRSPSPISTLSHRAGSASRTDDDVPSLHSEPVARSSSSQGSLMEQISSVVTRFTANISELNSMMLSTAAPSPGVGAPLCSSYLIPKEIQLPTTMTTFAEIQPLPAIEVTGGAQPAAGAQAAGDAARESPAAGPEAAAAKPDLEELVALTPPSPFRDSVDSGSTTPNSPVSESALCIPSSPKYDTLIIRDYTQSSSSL

Compound	melting point	Emax (human mGluR5)	pEC50 (human mGluR5)
COc1cnc(CN2CCn3nc(COc4ccccc4)cc3C2=O)nc1 [Example B12]	> 300 °C	59.5%	7.51
O=C1c2cc(COc3ccccc3)nn2CCN1Cc1ncc(F)cn1 [Example B70]	–	66%	6.40
C[C@@H]1Cn2nc(COc3cccc(F)c3)cc2C(=O)N1Cc1ccccc1 [Example B49]	–	73%	7.03
CC1CN(Cc2ccccc2)C(=O)c2cc(COc3cccc(F)c3)nn21 (single isomer, unassigned) [Example B10, (7*S)-5-benzyl-2-[(3-fluorophenoxy)methyl]-7-methyl-6,7-dihydropyrazolo[1,5-a]pyrazin-4(5H)-one]	–	70.5%	7.16
C[C@@H]1Cn2nc(COc3ccccc3)cc2C(=O)N1Cc1ncccc1Cl [Example B87]	166.4 °C	80%	6.56
COc1c(Cl)cccc1CN1CCn2nc(COc3ccccc3)cc2C1=O [Example B68]	116 °C	65.5%	7.75
COc1nccnc1CN1CCn2nc(COc3cccc(F)c3)cc2C1=O [Example B103]	154.1 °C	63%	6.49
COc1ccc(CN2CCn3nc(COc4cc(C)nc(C)c4)cc3C2=O)cc1 [Example B35]	164.8 °C	17%	< 4.50
Cc1cccc(CN2C(=O)c3cc(COc4ccccc4)nn3C[C@H]2C)n1 [Example B86]	107.6 °C	71.5%	6.52
C[C@@H]1Cn2nc(COc3cccc(C#N)c3)cc2C(=O)N1Cc1ccccc1 [Example B58]	–	59%	6.33
Cc1cc(CN2CCn3nc(COc4ccccc4)cc3C2=O)ncc1F [Example B82]	129.8 °C	75.5%	6.45
CC1CN(Cc2ccccc2)C(=O)c2cc(COc3cccc(C#N)c3)nn21 (single isomer, unassigned) [Example B53]	–	65%	6.28
COc1ccc(CN2CCn3nc(COc4ccnc(C)c4)cc3C2=O)cc1 [Example B33]	117.1 °C	30%	< 5.00
CC(c1cccnc1)N1CCn2nc(COc3ccccc3)cc2C1=O (centres unmarked) [Example B13]	> 300 °C (dec.)	60%	5.78
Cc1cccc(OCc2cc3n(n2)C(C)CN(Cc2ccccc2)C3=O)c1 (single isomer, unassigned) [Example B55]	–	69.5%	–
O=C1c2cc(COc3ccc(F)cc3)nn2CCN1Cc1ncccc1Cl [Example B88]	268.8 °C	71%	7.03
C[C@H](c1ccccc1)N1CCn2nc(COc3ccccc3)cc2C1=O [Example B8, 2-(phenoxymethyl)-5-[(1R)-1-phenylethyl]-6,7-dihydropyrazolo[1,5-a]pyrazin-4(5H)-one]	–	59.5%	7.51
C[C@@H]1Cn2nc(COc3ccccn3)cc2C(=O)N1Cc1ccccc1 [Example B56]	–	70%	6.00
CC1CN(Cc2ccccc2)C(=O)c2cc(COc3ccc(F)cc3)nn21 (single isomer, unassigned) [Example B54]	–	69.5%	7.03
COc1ccc(F)cc1CN1CCn2nc(COc3ccccc3)cc2C1=O [Example B61]	–	66%	7.07
Cc1cccc(OCc2cc3n(n2)C[C@@H](C)N(Cc2ccccc2)C3=O)c1 [Example B57]	–	64.5%	6.73
COc1cccc(CN2CCn3nc(COc4ccccc4)cc3C2=O)c1F [Example B59]	–	71%	6.97

Other lines, results leading:

melting point	Emax (human mGluR5)	pEC50 (human mGluR5)	Compound
132.1 °C	64%	6.69	COc1cc(CN2CCn3nc(COc4ccccc4)cc3C2=O)ccc1F [Example B66]
–	63.5%	7.39	COc1ccccc1CN1CCn2nc(COc3ccccc3)cc2C1=O [Example B38]
218 °C	76%	7.26	O=C1c2cc(COc3ccccc3)nn2CCN1Cc1cccc(Cl)c1 [Example B47]
115.4 °C	75%	6.43	O=C1c2cc(COc3ccccc3)nn2CCN1Cc1ccc(C(F)(F)F)nc1 [Example B95]
91.5 °C	69%	7.31	O=C1c2cc(COc3ccccc3)nn2CCN1Cc1ccccc1 [Example B7, 5-benzyl-2-(phenoxymethyl)-6,7-dihydropyrazolo[1,5-a]pyrazin-4(5H)-one]
137.6 °C	76%	6.91	O=C1c2cc(COc3ccccc3)nn2CCN1Cc1nccc2ccccc12 [Example B94]
164.9 °C	75%	6.84	Cc1ccc(CN2CCn3nc(COc4ccccc4)cc3C2=O)cc1 [Example B65]
110.6 °C	69.5%	7.36	O=C1c2cc(COc3ccccc3)nn2CCN1Cc1ccccc1F [Example B19]
–	68%	5.75	O=C1c2cc(COc3ccccc3)nn2CCN1Cc1ccncc1 [Example B102]
71.8 °C	69%	7.02	CN(C)c1cccc(CN2CCn3nc(COc4ccccc4)cc3C2=O)n1 [Example B74]
75.3 °C	69.5%	5.95	O=C1c2cc(COc3ccccc3)nn2CCN1Cc1ccccn1 [Example B17]
131.3 °C	73%	7.59	O=C1c2cc(COc3ccccc3)nn2CCN1Cc1cccc2cccnc12 [Example B93]
117.4 °C	81%	6.64	N#Cc1cccc(CN2CCn3nc(COc4ccccc4)cc3C2=O)c1 [Example B72]
94.6 °C	64%	7.06	O=C1c2cc(COc3ccccc3)nn2CCCN1Cc1ccccc1 [Example B2, 5-benzyl-2-(phenoxymethyl)-5,6,7,8-tetrahydro-4H-pyrazolo[1,5-a][1,4]diazepin-4-one]
105.8 °C	69%	7.17	O=C1c2cc(COc3ccccc3)nn2CCN1Cc1nc2ccccc2s1 [Example B91]
–	69%	6.68	COc1ccc(CN2CCn3nc(COc4ccccc4)cc3C2=O)cc1 [Example B34]
–	75.5%	7.10	COc1cccc(CN2CCn3nc(COc4ccccc4)cc3C2=O)c1Cl [Example B60]
–	53%	6.42	N#Cc1cccc(OCc2cc3n(n2)CCN(Cc2ccccc2)C3=O)c1 [Example B43]
–	76%	6.92	O=C1c2cc(COc3ccccc3)nn2CCN1Cc1ncccc1Cl [Example B6, 5-[(3-chloropyridin-2-yl)methyl]-2-(phenoxymethyl)-6,7-dihydropyrazolo[1,5-a]pyrazin-4(5H)-one]
